The source of these data is US6881414B2, “Mild cosmetic composition with stabilized retinoids” (Unilever Home & Personal Care USA, division of Conopco, Inc., priority 2000, dated 2005).

One data set has as its target T1, LRAT (Bos taurus, UniProt Q9BGL2).
T1 construct: followed by approximately 15 μg of RPE microsomal protein; tissue W. L. Lawson Co; host or cells: bovine retinal pigment epithelium microsomes
T1 sequence (Q9BGL2 1-230): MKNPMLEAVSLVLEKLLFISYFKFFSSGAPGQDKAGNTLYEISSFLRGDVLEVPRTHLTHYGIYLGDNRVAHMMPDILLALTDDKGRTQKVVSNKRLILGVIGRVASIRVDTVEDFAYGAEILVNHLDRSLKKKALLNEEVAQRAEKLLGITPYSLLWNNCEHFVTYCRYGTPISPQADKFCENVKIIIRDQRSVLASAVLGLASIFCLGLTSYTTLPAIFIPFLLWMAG
Put plainly: LRAT activity assay, RPE microsomes (to identify B1). In kind it is biochemical, bovine. The following applies: for % Inhibition LRAT (10 μm): compound 10 μm; for % Inhibition LRAT (100 μm): compound 100 μm.

Another data set deals with TGase I in keratinocytes. Kind of data set: Transglutaminase (TGase I) ELISA assay in cultured keratinocytes. It is filed as cell-based. The following applies: added effect of booster+retinol induced TGase inhibition over retinol alone.
The target in a further data set is T2, CRABPII (Homo sapiens, UniProt P29373).
T2 construct: made in house; host or cells: E. coli BLR(DE3)pLysS
T2 sequence (P29373 1-138): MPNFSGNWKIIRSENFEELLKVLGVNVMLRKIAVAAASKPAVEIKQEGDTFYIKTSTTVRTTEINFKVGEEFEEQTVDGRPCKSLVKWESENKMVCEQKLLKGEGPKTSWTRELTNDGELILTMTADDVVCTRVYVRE
Put plainly: CRABPII antagonist radioactive binding assay (to identify B4). The following applies: competition with radioactive all trans retinoic acid; ligand excess ratio not given. The source says:
2.6 Assay for CRABPII Antagonists (To Identify B4)
2.6.1. Synthesis of CRABPII
The gene CRABPII was cloned in pET 29a-c(+) plasmid (Novagen). The cloned gene was under control of strong bacteriophage T7 transcription and translation signals. The source of T7 polymerase was provided by the host cell E.coli BLR(DE3)pLysS (Novagen). The latter has a chromosomal copy of T7 polymerase under lacUV5 control, induced by the presence of IPTG.
The plasmid was transferred into E. coli BLR(DE3)pLysS cells by transformation according to the manufacturer protocol (Novagen).
An overnight culture of the transformed cells was diluted 1:100 into 2×YT containing 50 μg/mL kanamycin and 25 μg/mL chloramphenicol. The cells grew while shaking at 37° C. until the OD at 600 nm reached 0.6-0.8. Then IPTG was added to a final concentration of 1 mM and the culture was incubated for an additional two hours. The cells were harvested by centrifugation at 5000 g for 10 minutes at room temperature. The pellet was stored at −20° C.
Purification was performed according to the method described in A. W. Norris & E. Li, Generation and characterization of cellular retinoic acid-binding proteins from Escherichia coli expression systems”. Methods Enzymol. 282:3-13 (1997).
The frozen pellet was thawed at RT and resuspended in 1-2 pellet volumes of freshly prepared lysis buffer (50 mM Tris-HCl, pH 8, 10% (w/v) sucrose, 1 mM EDTA, 0.05% (w/v) sodium azide, 0.5 mM DTT, 10 mM MnCl2, 2.5 mM phenylmethylsulfonyl fluoride, 2.5 mM benzamidine, 6 μg/mL DNase). The lysate was incubated for 30 min at room temperature. Further lysis was accomplished by sonication (six 30-sec bursts at […] alternated with five 30-sec delay on ice). […]
The supernatant from step a. was loaded onto a 2.5×100 cm column of sephacryl S-300 (Pharmacia) at room temperature. […] Collected 2-mL fractions were checked for ultraviolet absorbance at 280 nm. […]
For the competitive assay, another ligand in excess (6670:1, 670:1 or 70:1) was added to the mix. […] The radioactivity of the filtrate was measured by scintillation counter.

Data set [1] is described as follows: Retinoid solubility in oil (UV spectroscopy of filtrate). It is filed as physicochemical. The protocol:
As an illustration, solubility of retinol crystals in varying oils is as follows:
Retinoid solubility in oil is determined by the following procedure. A known weight of pure retinoid in excess of the expected solubility limit in the oil is added in an oil. Methanol is added to the mixture to dissolve all retinoid crystals. Nitrogen sparging is used to ensure all methanol was evaporated from the oil. Retinoid is allowed to recrystallize overnight. The sample is filtered through a 0.45 micron filter. Known dilutions of the filtrate in isopropanol are measured by UV spectroscopy at an appropriate wavelength (325 nm for retinol) and the concentration of retinoid determined against calibration standards of retinoid in isopropanol.

Experimental for LRAT: 50 frozen hemisected bovine eyecups, with the retina and aqueous humor removed were obtained from W. L. Lawson Co., Lincoln, Nebr., U.S.A. The eyes were thawed overnight and the colored iridescent membrane was removed by peeling with forceps. […] The cell suspension was added to the iridescent membranes and the suspension was stirred for several minutes in a beaker with a Teflon stir bar. The suspension was filtered through a coarse filter (Spectra/Por 925 μl pore size polyethylene mesh) to remove large particles, and the resulting darkly colored suspension was homogenized using a Glas-Col with a motor driven Teflon homogenizer. The cell homogenate was centrifuged for 30 min. at 20,000 g (Sorvaal model RC-5B centrifuge with an SS34 rotor in 2.5×10 cm tubes at 14,000 RPM). The resulting supernatant was subjected to further centrifugation for 60 min. at 150,000 g (Beckman model L80 Ultracentrifuge with an SW50.1 rotor in 13×51 mm tubes at 40,000 RPM). The resulting pellets were dispersed into ˜5 mL 0.1M PO4/5 mM DTT, pH 7 buffer using a Heat Systems Ultrasonics, Inc. model W185D Sonifier Cell Disruptor, and the resulting microsomal dispersion was aliquoted into small tubes and stored at −70° C. The protein concentrations of the microsomes were determined using the BioRad Dye binding assay, using BSA as a standard.
2.3 Assay for ARAT and LRAT Activity (To Identify B1)
The following buffer was prepared and stored at 4° C.: 0.1M PO4/5 mM dithiothreitol, pH 7.0 (PO4/DTT). On the day of the assay, add 2 mg BSA per mL of buffer to give a PO4/DTT/BSA working buffer. 1 mM retinol substrate was prepared in acetonitrile and stored in amber bottles under nitrogen gas at −20° C. Solutions of 4 mM Palmitoyl-CoA in working buffer (stored in aliquots) and 4 mM dilauroyl phosphatidyl choline in ethanol were prepared and stored at −20° C. Inhibitors were prepared as 10 mM stock solutions in water, ethanol, acetonitrile or DMSO. The quench solution was prepared using pure ethanol containing 50 μg/mL butylated hydroxytoluene (BHT), and a hexane solution containing 50 μg/mL BHT was used for the extractions.
Incubate for 5 min. at 37° C. to equilibrate the reaction temperature and then add 5 μl 1 mM retinol. Cap the vials, vortex for 5 seconds and incubate for 30-90 minutes at 37° C. Quench the reaction by adding 0.5 mL ethanol/BHT. Extract the retinoids by adding 3 mL hexane/BHT, vortex the tubes for several seconds several times and centrifuge the tubes at low speed for 5 min. to quickly separate the layers. Remove the upper hexane layer into a clean vial, and re-extract the aqueous layer with another 3 mL hexane/BHT, as described above. Combine the hexane layers and evaporate the hexane by drying at 37° C. under a stream of nitrogen gas on a heated aluminum block. Store the dried residue at −20° C. until HPLC analysis. Quantitate the amount of retinyl palmitate and retinyl laurate for ARAT and LRAT activity, respectively, by integration of the HPLC signal as described below.
Note that the incubation solution contains 40 μM acyl donor, 100 μM or less inhibitor, 10 μM retinol, approximately 30 μg/mL microsomal protein, and nearly 0.1M PO4, pH 7/5 mM DTT/2 mg/mL BSA. […]
Samples for retinoid quantitation by HPLC were prepared by dissolving the residue in each vial with 100 μL of methanol. […] Aliquots of 60 μL were injected immediately and analyzed for retinoid content.
Two HPLC protocols were used for retinoid analysis. […] The column eluate was monitored from 300 nm to 400 nm.
Experimental for TGase I in keratinocytes: An ELISA based TGase I assay, using a TGase I antibody, was used to assess the state of differentiation of the cultured keratinocytes in the examples that follow.
Keratinocytes (cultured as described above) were plated in 96 well plates at a density of 4,000-5,000 cells per well in 200 μl media. After incubation for two to three days, or until cells are ˜50% confluent, the media was changed to media containing test compounds (five replicates per test). The cells were cultured for a further 96 hours after which time the media was aspirated and the plates stored at −70° C. Plates were removed from the freezer, and the cells were washed twice with 200 μl of 1×PBS. The cells were incubated for one hour at room temperature (RIT) with TBS/5% BSA (wash buffer, bovine serum albumin). Next the TGase primary antibody was added: 50 μl of monoclonal anti-Tgase I Ab B.C. diluted 1:2000 in wash buffer. The primary antibody was incubated for 2 hours at 37° C. and then rinsed 6× with wash buffer. Cells were then incubated with 50 μl of secondary antibody (Fab fragment, peroxidase conjugated anti-mouse IgG obtaining from Amersham) diluted 1:4,000 in wash buffer for two hours at 37° C., then rinsed three times with wash buffer. Following the rinse with washing buffer, the cells were rinsed 3× with PBS. […] TGase levels were determined and expressed as percentage control.

For the compound `CC(/C=C/C=C(\C)C(=O)O)=C\C=C\C=C(C)\C=C\C=C(/C)C(=O)O` [Crocetin], the “% Inhibition LRAT (10 μm)” value on LRAT is listed as 0%. As for `CN1CCN(C)C1=O` [Dimethyl Imidazolidinone], the “% Inhibition Overall TG (- ROH/RE)” value in the data set with TGase I in keratinocytes is given as 22%.

On to `CCCCCCCC/C=C/CCCCCCCC(=O)O` [Elaidic Acid], for which the “% Inhibition CRABPII” value on CRABPII is greater than 50%. As to `CC(C)=CCCC(C)=CCCC(C)=CCO` [Farnesol], the “% Inhibition LRAT (10 μm)” value on LRAT is 10% +/− 7. `CC(C)=CCC/C(C)=C/CC/C(C)=C/CC/C(C)=C/CO` [Geranyl Geraniol]: on LRAT, the “% Inhibition LRAT (10 μm)” value was 16% +/− 9. For `O=C(O)CCCCCCCCCCCCCCC(=O)O` [Hexadecanedioic Acid], the “% Inhibition CRABPII” value at CRABPII was greater than 50%. As to `CC(C)CCCCCCCCCCCCCCC(=O)O` [Isostearic Acid], the “% Inhibition CRABPII” value at CRABPII is greater than 50%. For `C=CC(C)(O)CCC=C(C)C` (centres unmarked) [Linatool], the “% Inhibition LRAT (100 μm)” value on LRAT was 0%. With `CCCCC/C=C\C/C=C\CCCCCCCC(=O)N(CCO)CCO` [Linoleamide-DEA, Linoleoyl Diethanolamide], in the data set on TGase I in keratinocytes, the “% Inhibition Overall TG (- ROH/RE)” value turned out to be 59%. With `O=C1C[C@@H](c2ccc(O)cc2)Oc2cc(O)cc(O)c21` [Naringenin], on LRAT, the “% Inhibition LRAT (100 μm)” value is listed as 14%. Turning to `CC1=C(/C=C/C(C)=C/C=C/C(C)=C/CO)C(C)(C)CCC1` [retinol], the “Solubility of retinol crystals in oil” value in data set [1] (in C12-15 Alkyl benzoate) is reported as 85 wt %; in data set [1] (in Cetiol OE) it was 80 wt %; in data set [1] (in Cyclomethicone) it was 2.7 wt %; in data set [1] (in Dimethicone), 0.49 wt %; in data set [1] (in Isostearyl palmitate) it was 44 wt %; in data set [1] (in Mineral oil), 34.2 wt %. Moreover, the “Solubility of retinol crystals in oil” value in data set [1] (in Triolein/Squalene (6:1)) is 56.4 wt %.
